Results published in patent US11903387B2 (priority 2016, dated 2024).
Read-outs that look alike come from different tables or passages of the source.

Key:
[1] = system: Pseudoperonospora cubensis; assay: Test 2: control effect against cucumber downy mildew; type: in vivo
[2] = system: Phytophthora infestans; assay: whole plant or invertebrate; type: in vivo; settings: for Test 1 Measured: component (b) alone
[3] = Pseudoperonospora cubensis, component (b) alone, 0.4 ppm, read-out: Test 2 Measured
[4] = Pseudoperonospora cubensis, component (b) alone, 10 ppm, read-out: Test 2 Measured
[5] = Phytophthora infestans, in Solanum lycopersicum, read-out: Test 1 Measured, component (b) alone, 0.4 ppm
[6] = Phytophthora infestans, in Solanum lycopersicum, read-out: Test 1 Measured, component (b) alone, 2 ppm
[7] = Phytophthora infestans, in Solanum lycopersicum, read-out: Test 1 preventive value, Measured, applied alone, 50 ppm
[8] = Phytophthora infestans, in Solanum lycopersicum, read-out: Test 1 Measured preventive value, component (b) alone, 2 ppm

SMILES: COC(=O)NC(=S)Nc1ccccc1NC(=S)NC(=O)OC [Thiophanate-methyl]
- pest or weed control at 20 ppm ([1]; Pseudoperonospora cubensis, component (b) alone 20 ppm, read-out: Test 2 Measured): 0%
- pest or weed control at 100 ppm ([1]; Pseudoperonospora cubensis, component (b) alone 100 ppm, read-out: Test 2 Measured): 0%
- pest or weed control at 500 ppm ([1]; Pseudoperonospora cubensis, component (b) alone 500 ppm, read-out: Test 2 Measured): 2.5%
- pest or weed control at 20 ppm ([2]; Phytophthora infestans, in Solanum lycopersicum, read-out: Test 1 Measured, component (b) alone 20 ppm): 0%
- pest or weed control at 500 ppm ([2]; Phytophthora infestans, in Solanum lycopersicum, read-out: Test 1 Measured, component (b) alone 500 ppm): 60%

SMILES: CSC1=N[C@@](C)(c2ccccc2)C(=O)N1Nc1ccccc1 [Fenamidone]
- pest or weed control at 0.4 ppm [1, 3]: 0%
- pest or weed control at 2 ppm ([1]; Pseudoperonospora cubensis, component (b) alone, 2 ppm, read-out: Test 2 Measured): 0%
- pest or weed control at 10 ppm [1, 4]: 0%
- pest or weed control at 0.4 ppm [2, 5]: 16.7%
- pest or weed control at 2 ppm [2, 6]: 94.2%
- pest or weed control at 10 ppm ([2]; Phytophthora infestans, in Solanum lycopersicum, read-out: Test 1 Measured, component (b) alone, 10 ppm): 98.5%

SMILES: Fc1ccc(Oc2ccnc3cc(Cl)cc(Cl)c23)cc1 [Quinoxyfen]
- pest or weed control at 250 ppm ([1]; Pseudoperonospora cubensis, component (b) alone 250 ppm, read-out: Test 2 Measured): 0%
- pest or weed control at 10 ppm [1, 4]: 0%
- pest or weed control at 50 ppm ([1]; Pseudoperonospora cubensis, component (b) alone, 50 ppm, read-out: Test 2 Measured): 0%
- pest or weed control at 10 ppm ([2]; Phytophthora infestans, in Solanum lycopersicum, read-out: Test 1 preventive value, Measured, applied alone, 10 ppm): 0%
- pest or weed control at 50 ppm [2, 7]: 0%
- pest or weed control at 250 ppm ([2]; Phytophthora infestans, in Solanum lycopersicum, read-out: Test 1 preventive value, Measured, applied alone, 250 ppm): 0%

SMILES: Cc1ccc(-c2c(Cl)nc(C#N)n2S(=O)(=O)N(C)C)cc1 [Cyazofamid]
- pest or weed control at 0.003 ppm ([1]; Pseudoperonospora cubensis, component (b) alone, 0.003 ppm, read-out: Test 2 Measured): 0%
- pest or weed control at 0.08 ppm ([1]; Pseudoperonospora cubensis, component (b) alone, 0.08 ppm, read-out: Test 2 Measured): 99%
- pest or weed control at 0.4 ppm [1, 3]: 100%
- Test 2 Measured preventive value ([1]; component (b) alone 0.003 ppm, average of three repeats): 0
- Test 2 Measured preventive value ([1]; component (b) alone 0.08 ppm, average of three repeats): 99.5
- Test 2 Measured preventive value ([1]; component (b) alone 0.4 ppm, average of three repeats): 100
- Test 2 Measured preventive value ([1]; component (b) alone, 0.003 ppm): 0
- Test 2 Measured preventive value ([1]; component (b) alone, 0.08 ppm): 99.5
- Test 2 Measured preventive value ([1]; component (b) alone, 0.4 ppm): 100
- pest or weed control at 0.08 ppm ([2]; Phytophthora infestans, in Solanum lycopersicum, read-out: Test 1 Measured preventive value, component (b) alone 0.08 ppm, average of three repeats): 46.7%
- pest or weed control at 0.4 ppm ([2]; Phytophthora infestans, in Solanum lycopersicum, read-out: Test 1 Measured preventive value, component (b) alone 0.4 ppm, average of three repeats): 95.5%
- pest or weed control at 2 ppm ([2]; Phytophthora infestans, in Solanum lycopersicum, read-out: Test 1 Measured preventive value, component (b) alone 2 ppm, average of three repeats): 100%
- pest or weed control at 0.08 ppm ([2]; Phytophthora infestans, in Solanum lycopersicum, read-out: Test 1 Measured preventive value, component (b) alone, 0.08 ppm): 46.7%
- pest or weed control at 0.4 ppm ([2]; Phytophthora infestans, in Solanum lycopersicum, read-out: Test 1 Measured preventive value, component (b) alone, 0.4 ppm): 95.5%
- pest or weed control at 2 ppm [2, 8]: 100%
- pest or weed control at 0.08 ppm ([2]; Phytophthora infestans, in Solanum lycopersicum, read-out: Test 1 Measured, component (b) alone, 0.08 ppm): 32%
- pest or weed control at 0.4 ppm [2, 5]: 96%
- pest or weed control at 2 ppm [2, 6]: 100%

SMILES: Cc1ccc(C(C)NC(=O)[C@@H](NC(=O)OC(C)C)C(C)C)cc1 (stereo partly drawn) [Iprovalicarb]
- Test 2 Measured ([1]; component (b) alone, 0.4 ppm): 0
- Test 2 Measured ([1]; component (b) alone, 2 ppm): 0
- Test 2 Measured ([1]; component (b) alone, 10 ppm): 93.8
- Test 1 Measured ([2]; 0.4 ppm): 15
- Test 1 Measured ([2]; 2 ppm): 93.3
- Test 1 Measured ([2]; 10 ppm): 100

SMILES: CCNC(=O)NC(=O)/C(C#N)=N/OC [Cymoxanil]
- Test 2 Measured preventive value ([1]; component (b) alone, 2 ppm): 0
- Test 2 Measured preventive value ([1]; component (b) alone, 10 ppm): 0
- Test 2 Measured preventive value ([1]; component (b) alone, 50 ppm): 46.3
- pest or weed control at 2 ppm [2, 8]: 31.7%
- pest or weed control at 10 ppm ([2]; Phytophthora infestans, in Solanum lycopersicum, read-out: Test 1 Measured preventive value, component (b) alone, 10 ppm): 78.3%
- pest or weed control at 50 ppm ([2]; Phytophthora infestans, in Solanum lycopersicum, read-out: Test 1 Measured preventive value, component (b) alone, 50 ppm): 100%

SMILES: CON=C(C(=O)OC)c1ccccc1CON=C(C)c1cccc(C(F)(F)F)c1 [Trifloxystrobin]
- pest or weed control at 10 ppm ([1]; Pseudoperonospora cubensis, applied alone, 10 ppm, read-out: Test 2 preventive value, Measured): 0%
- pest or weed control at 50 ppm ([1]; Pseudoperonospora cubensis, applied alone, 50 ppm, read-out: Test 2 preventive value, Measured): 0%
- pest or weed control at 250 ppm ([1]; Pseudoperonospora cubensis, applied alone, 250 ppm, read-out: Test 2 preventive value, Measured): 0%
- pest or weed control at 50 ppm [2, 7]: 28.3%
